Experimental findings from the NIST ThermoML archive (doi:10.1016/j.tca.2017.12.019) are described below.

The conditions of series [1]: Crystal; DTA.
A short description of series [2]: Molar enthalpy of transition or fusion. The conditions noted are these: Crystal; DSC.

Numbers after ± are expanded uncertainties.

Take `CCCCCCCCCCCC(=O)O` [dodecanoic acid]: the Normal melting temperature in series [1] amounted to 42.70 ± 0.7 °C. Also, the “Molar enthalpy of transition or fusion” value in series [2] is 8.43 ± 0.234 kcal/mol.
